These results are taken from patent US8546414B2, “Ion channel modulators and methods of use” (Vertex Pharmaceuticals Incorporated, priority 2004, dated 2013).

The structures appear in SMILES notation.

For one test, the target named is T1, CaV2.2 (Homo sapiens, UniProt Q00975).
T1 construct: expressed in transfected cells; host or cells: HEK293
Briefly: VIPR optical membrane potential assay with electrical stimulation, CaV2.2. The test is classed as cell-based. Particulars: Table 9, CaV 2.2 receptors. On the procedure: A. Optical Methods for Assaying CaV Inhibition Properties of Compounds:
(§1) Antagonist properties of test compounds were assessed as follows. Cells expressing the CaV of interest were placed into microtiter plates. After an incubation period, the cells were stained with fluorescent dyes sensitive to the transmembrane potential. The test compounds were added to the microtiter plate. The cells were stimulated with electrical means to evoke a CaV dependent membrane potential change from unblocked channels, which was detected and measured with trans-membrane potential-sensitive dyes. Antagonists were detected as a decreased membrane potential response to the stimulus.
(§2) VIPR® Optical Membrane Potential Assay Method with Electrical Stimulation
The following is an example of how CaV2.2 inhibition activity is measured using the optical membrane potential method. Other subtypes are performed in an analogous mode in a cell line expressing the CaV of interest.
HEK293 cells stably expressing CaV2.2 are plated into 96-well microtiter plates. After an appropriate incubation period, the cells are stained with the voltage sensitive dyes CC2-DMPE/DiSBAC2(3) as follows.
2X CC2-DMPE=20 μM CC2-DMPE: 10 mM CC2-DMPE is vortexed with an equivalent volume of 10% Pluronic, followed by vortexing in required amount of HBSS containing 10 mM HEPES. Each cell plate will require 5 mL of 2×CC2-DMPE. 50 μL of 2×CC2-DMPE is added to wells containing washed cells, resulting in a 10 μM final staining concentration. The cells are stained for 30 minutes in the dark at RT.
Vortex in required amount of Bath X with beta-cyclodextrin. Each 96 well cell plate will require 5 ml of 2XCC2DMPE. Wash plate with ELx405 with Bath X, leaving a residual volume of 50 μL/well. Add 50 μL of 2XCC2DMPE & […] to each well. Stain for 30 minutes in the dark at RT.
Allow solution to sit for 10 minutes. Slowly mix in 370 mM BaCl2. This solution can be used to solvate compound plates. Note that compound plates are made at 1.5× drug concentration and not the usual 2X. Wash CC2 stained plate, again, leaving residual volume of 50 μL. Add 100 uL/well of the AY17 solution. Stain for 15 minutes in the dark at RT. Run plate on the optical reader.
(§3) The instrument comprises a microtiter plate handler, an optical system for exciting the coumarin dye while simultaneously recording the coumarin and oxonol emissions, a waveform generator, a current- or voltage-controlled amplifier, and a device for inserting electrodes in well. Under integrated computer control, this instrument passes user-programmed electrical stimulus protocols to cells within the wells of the microtiter plate.
Insert or use electrodes into each well to be assayed.
Use the current-controlled amplifier to deliver stimulation wave pulses for 3-5 s. Two seconds of pre-stimulus recording are performed to obtain the un-stimulated intensities. Five seconds of post-stimulation recording are performed to examine the relaxation to the resting state.
(§4) Data are analyzed and reported as normalized ratios of background-subtracted emission intensities measured in the 460 nm and 580 nm channels. Background intensities are then subtracted from each assay channel. Background intensities are obtained by measuring the emission intensities during the same time periods from identically treated assay wells in which there are no cells. The response as a function of time is then reported as the ratios obtained using the following formula: […]
(§5) The data is further reduced by calculating the initial (Ri) and final (Rf) ratios. These are the average ratio values during part or all of the pre-stimulation period, and during sample points during the stimulation period. The response to the stimulus R=Rf/Ri is then calculated.
Control responses are obtained by performing assays in the presence of a compound with the desired properties (positive control), such as mibefradil, and in the absence of pharmacological agents (negative control).

The target of another test is T2, NaV1.3 (Homo sapiens, UniProt Q9NY46).
T2 construct: expressed in transfected cells; host or cells: HEK293
Briefly: VIPR optical membrane potential assay with electrical stimulation, NaV1.3. The test is classed as cell-based. Particulars: Table 9, NaV 1.3 receptors. As for the experimental part: as §1, with “expressing the NaV of interest” for “expressing the CaV of interest”, “stimulated with either chemical or electrical means” for “stimulated with electrical means”, “evoke a NaV dependent membrane” for “evoke a CaV dependent membrane”
as §2
The following is an example of how NaV1.3 inhibition activity is measured using the optical membrane potential method#2. Other subtypes are performed in an analogous mode in a cell line expressing the NaV of interest.
HEK293 cells stably expressing NaV1.3 are plated into 96-well microtiter plates. After an appropriate incubation period, the cells are stained with the voltage sensitive dyes CC2-DMPE/DiSBAC2(3) as follows.
2X CC2-DMPE=20 μM CC2-DMPE: 10 mM CC2-DMPE is vortexed with an equivalent volume of 10% pluronic, followed by vortexing in required amount of HBSS containing 10 mM HEPES. Each cell plate will require 5 mL of 2×CC2-DMPE. 50 μL of 2×CC2-DMPE is added to wells containing washed cells, resulting in a 10 μM final staining concentration. The cells are stained for 30 minutes in the dark at RT.
2X DISBAC2(3) with ABSC1=6 μM DISBAC2(3) and 1 mM ABSC1: The required amount of 10 mM DISBAC2(3) is added to a 50 ml conical tube and mixed with 1 μL 10% pluronic for each mL of solution to be made and vortexed together. Then HBSS/HEPES is added to make up 2× solution. Finally, the ABSC1 is added.
The 2X DiSBAC2(3) solution can be used to solvate compound plates. Note that compound plates are made at 2× drug concentration. Wash stained plate again, leaving residual volume of 50 Add 50 μL/well of the 2X DiSBAC2(3) w/ABSC1. Stain for 30 minutes in the dark at RT.
as §3
• 1. Insert or use electrodes into each well to be assayed. • 2. Use the current-controlled amplifier to deliver stimulation wave pulses for 3 s. Two seconds of pre-stimulus recording are performed to obtain the un-stimulated intensities. Five seconds of post-stimulation recording are performed to examine the relaxation to the resting state. Data Analysis
as §4, §5
Control responses are obtained by performing assays in the presence of a compound with the desired properties (positive control), such as tetracaine, and in the absence of pharmacological agents (negative control). Responses to the negative (N) and positive (P) controls are calculated as above. The compound antagonist activity A is defined as: […]

Broadly, the IC50 is the concentration needed to halve the response being measured. High values mean lower potency, low ones higher potency.

T2 sequence (Q9NY46 whole entry): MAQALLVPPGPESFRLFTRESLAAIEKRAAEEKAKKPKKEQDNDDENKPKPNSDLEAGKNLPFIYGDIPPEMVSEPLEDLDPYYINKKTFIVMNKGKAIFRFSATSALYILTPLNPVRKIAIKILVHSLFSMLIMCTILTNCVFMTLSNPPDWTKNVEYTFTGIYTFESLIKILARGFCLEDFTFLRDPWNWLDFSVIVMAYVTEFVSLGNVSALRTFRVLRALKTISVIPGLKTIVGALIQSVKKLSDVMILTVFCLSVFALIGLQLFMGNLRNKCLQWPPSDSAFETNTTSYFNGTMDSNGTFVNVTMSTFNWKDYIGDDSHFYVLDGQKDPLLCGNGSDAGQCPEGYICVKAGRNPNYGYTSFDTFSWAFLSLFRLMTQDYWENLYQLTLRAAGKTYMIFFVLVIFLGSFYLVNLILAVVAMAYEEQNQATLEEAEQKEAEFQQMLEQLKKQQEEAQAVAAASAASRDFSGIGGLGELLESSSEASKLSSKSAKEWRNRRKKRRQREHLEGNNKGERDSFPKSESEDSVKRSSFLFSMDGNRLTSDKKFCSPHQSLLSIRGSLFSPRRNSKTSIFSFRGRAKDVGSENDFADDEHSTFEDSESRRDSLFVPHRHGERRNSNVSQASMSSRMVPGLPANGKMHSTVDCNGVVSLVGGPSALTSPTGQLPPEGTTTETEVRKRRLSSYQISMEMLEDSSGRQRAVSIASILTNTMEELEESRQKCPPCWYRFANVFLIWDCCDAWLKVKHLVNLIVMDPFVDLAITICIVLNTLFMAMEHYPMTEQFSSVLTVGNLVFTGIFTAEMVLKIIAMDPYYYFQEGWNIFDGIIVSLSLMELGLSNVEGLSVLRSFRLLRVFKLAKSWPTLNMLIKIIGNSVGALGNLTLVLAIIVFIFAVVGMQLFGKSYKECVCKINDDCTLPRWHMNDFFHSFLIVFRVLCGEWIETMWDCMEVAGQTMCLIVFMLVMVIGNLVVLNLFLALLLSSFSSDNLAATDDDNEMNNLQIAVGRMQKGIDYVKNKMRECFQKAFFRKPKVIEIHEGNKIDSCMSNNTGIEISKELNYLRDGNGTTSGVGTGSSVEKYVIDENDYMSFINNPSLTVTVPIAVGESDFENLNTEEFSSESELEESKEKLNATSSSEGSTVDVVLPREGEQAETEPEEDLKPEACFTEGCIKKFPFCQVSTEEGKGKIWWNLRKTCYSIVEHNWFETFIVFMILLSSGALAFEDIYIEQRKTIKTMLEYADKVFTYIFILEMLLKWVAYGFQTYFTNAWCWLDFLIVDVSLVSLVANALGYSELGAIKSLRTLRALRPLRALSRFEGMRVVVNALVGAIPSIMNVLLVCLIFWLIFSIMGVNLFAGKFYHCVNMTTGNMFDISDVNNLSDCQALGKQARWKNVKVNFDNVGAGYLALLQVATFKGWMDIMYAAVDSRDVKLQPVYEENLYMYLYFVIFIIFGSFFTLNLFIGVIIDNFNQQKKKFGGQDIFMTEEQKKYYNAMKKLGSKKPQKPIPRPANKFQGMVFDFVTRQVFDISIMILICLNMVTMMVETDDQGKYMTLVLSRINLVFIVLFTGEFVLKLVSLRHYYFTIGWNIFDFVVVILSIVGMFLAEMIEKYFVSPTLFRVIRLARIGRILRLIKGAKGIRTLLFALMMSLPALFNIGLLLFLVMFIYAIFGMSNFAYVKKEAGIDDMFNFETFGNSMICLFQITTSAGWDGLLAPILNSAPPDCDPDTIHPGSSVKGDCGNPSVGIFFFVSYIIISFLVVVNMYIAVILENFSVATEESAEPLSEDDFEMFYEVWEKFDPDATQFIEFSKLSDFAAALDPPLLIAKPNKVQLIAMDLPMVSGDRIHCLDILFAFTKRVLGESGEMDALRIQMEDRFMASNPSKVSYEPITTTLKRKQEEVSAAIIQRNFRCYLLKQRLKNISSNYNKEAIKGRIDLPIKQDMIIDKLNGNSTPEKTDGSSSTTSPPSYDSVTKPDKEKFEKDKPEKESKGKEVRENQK

Take `CCN(Cc1ccccc1)C(=O)c1cnc(NCCCOC)nc1-c1ccccc1F` [compound 327]: the IC50 against CaV2.2 and on NaV1.3 was greater than 10 µM throughout.
With `O=C(c1cnc(N2CCOCC2)nc1-c1ccc(-c2ccccc2)cc1)N1CCCCC1` [compound 229], the IC50 at CaV2.2 and against NaV1.3 was greater than 10 µM in each case.
Regarding `COc1ccc(CCN(C)c2ncc(C(=O)N3CC(C)CC(C)C3)c(-c3ccc(C#N)cc3)n2)cc1OC` (centres unmarked) [compound 285], the concentration for half-maximal inhibition (IC50) against CaV2.2 and on NaV1.3 was greater than 10 µM in each case.
Take `COc1cccc(OC)c1CNc1ncc(C(=O)N(C)C2CCCCC2)c(-c2ccc(C#N)cc2)n1` [compound 280]: the IC50 against CaV2.2 and on NaV1.3 was greater than 10 µM in each case.
For the compound `CCCCNC(=O)c1cnc(NCCCOC)nc1-c1cccc(C)c1` [compound 332], the IC50 against CaV2.2 and at NaV1.3 was greater than 10 µM each time.
Turning to `COCCCNc1ncc(C(=O)N2CCCCC2)c(-c2cccc(C)c2)n1` [compound 274], the IC50 on CaV2.2 and on NaV1.3 was greater than 10 µM throughout.
For `CCN(C)C(=O)c1cnc(N2CCOCC2)nc1-c1ccccc1F` [compound 317], the IC50 on CaV2.2 and on NaV1.3 was greater than 10 µM throughout.
`CC(=O)N1CCN(c2ncc(C(=O)N(Cc3ccccc3)C(C)C)c(-c3ccccc3F)n2)CC1` [compound 216]: the IC50 at CaV2.2 and at NaV1.3 was greater than 10 µM each time.
In the case of `Cc1cccc(-c2nc(NC3CC4CC(C3C)C4(C)C)ncc2C(=O)N2CCOCC2)c1` (centres unmarked) [compound 288], the IC50 against CaV2.2 and on NaV1.3 was greater than 10 µM in each case.
On to `CC(C)N(Cc1ccccc1)C(=O)c1cnc(NCC2CC2)nc1-c1ccccc1F` [compound 277], for which the IC50 against CaV2.2 is 2 to 10 µM; on NaV1.3, greater than 10 µM.
Turning to `CCCCNc1ncc(C(=O)N(C)CC(C)C)c(-c2cccc(C)c2)n1` [compound 262], the IC50 at CaV2.2 and at NaV1.3 was greater than 10 µM in each case.
Regarding `CCN(C)c1ncc(C(=O)N(C)C2CCCCC2)c(-c2ccc(C#N)cc2)n1` [compound 227], the half-inhibitory concentration (IC50) against CaV2.2 and on NaV1.3 was greater than 10 µM each time.
For the compound `CCCCNC(=O)c1cnc(N2CCOCC2)nc1-c1ccccc1F` [compound 233], the half-inhibitory concentration (IC50) on CaV2.2 and at NaV1.3 was greater than 10 µM throughout.
As to `Cc1cccc(-c2nc(N3CCOCC3)ncc2C(=O)N(Cc2ccccc2)C(C)C)c1` [compound 240], the IC50 against CaV2.2 and against NaV1.3 was greater than 10 µM each time.
On to `CC(=O)NCCNC(=O)c1cnc(N2CCCC2)nc1-c1ccc(-c2ccccc2)cc1` [compound 281], for which the half-maximal inhibitory concentration (IC50) at CaV2.2 and on NaV1.3 was greater than 10 µM each time.
Turning to `CCC1CCC(C)N(C(=O)c2cnc(N(C)CC)nc2-c2ccccc2F)C1` (centres unmarked) [compound 282], the IC50 on CaV2.2 was 2 to 10 µM; against NaV1.3 it was greater than 10 µM.
Consider `CC1CC(C)CN(C(=O)c2cnc(NCCc3cccc(F)c3)nc2-c2ccc(C#N)cc2)C1` (centres unmarked) [compound 220], for which the IC50 on CaV2.2 is 2 to 10 µM; against NaV1.3, greater than 10 µM.
On to `CCN(Cc1cccc(C)c1)C(=O)c1cnc(N2CCN(C(C)=O)CC2)nc1-c1ccc(C#N)cc1` [compound 208], for which the IC50 at CaV2.2 and on NaV1.3 was greater than 10 µM each time.
On to `Cc1cccc(-c2nc(N3CCOCC3)ncc2C(=O)NCc2cccc(C(F)(F)F)c2)c1` [compound 293], for which the IC50 against CaV2.2 and at NaV1.3 was greater than 10 µM in each case.
On to `CC1C(NC(=O)c2cnc(N3CCOCC3)nc2-c2ccc(C#N)cc2)CC2CC1C2(C)C` (centres unmarked) [compound 217], for which the concentration for half-maximal inhibition (IC50) on CaV2.2 and at NaV1.3 was greater than 10 µM in each case.
Turning to `Cc1ccc(CNc2ncc(C(=O)N3CCC(C)CC3)c(-c3ccc(C#N)cc3)n2)o1` [compound 261], the IC50 at CaV2.2 and at NaV1.3 was greater than 10 µM each time.
For `COCCCNC(=O)c1cnc(N2CCOCC2)nc1-c1ccccc1F` [compound 324], the IC50 at CaV2.2 and at NaV1.3 was greater than 10 µM each time.
Consider `O=C(c1cnc(NCC2CCCCC2)nc1-c1ccccc1F)N1CCOCC1` [compound 351], for which the 50% inhibitory concentration (IC50) against CaV2.2 and on NaV1.3 was greater than 10 µM each time.
Consider `CCN(Cc1ccccc1)C(=O)c1cnc(NCc2ccc3c(c2)OCO3)nc1-c1ccc(C#N)cc1` [compound 269], for which the IC50 at CaV2.2 and against NaV1.3 was greater than 10 µM in each case.
`CCC(C)NC(=O)c1cnc(N(C)CCc2ccc(OC)c(OC)c2)nc1-c1ccc(C#N)cc1` (centres unmarked) [compound 331]: the IC50 against CaV2.2 and against NaV1.3 was greater than 10 µM each time.
On to `COCCCNC(=O)c1cnc(N2CCN(C(C)=O)CC2)nc1-c1cccc(C)c1` [compound 339], for which the IC50 on CaV2.2 and on NaV1.3 was greater than 10 µM throughout.
For `Cc1cccc(-c2nc(NCc3ccccc3)ncc2C(=O)N2CCOCC2)c1` [compound 304], the IC50 at CaV2.2 and at NaV1.3 was greater than 10 µM throughout.
With `CCC(C)NC(=O)c1cnc(NC2CCCCC2)nc1-c1ccc(C#N)cc1` (centres unmarked) [compound 309], the IC50 on CaV2.2 and against NaV1.3 was greater than 10 µM each time.
As to `CCCCNc1ncc(C(=O)N2CCC(C)CC2)c(-c2ccc(C#N)cc2)n1` [compound 344], the IC50 on CaV2.2 and against NaV1.3 was greater than 10 µM throughout.
Take `O=C(c1cnc(N2CCOCC2)nc1-c1ccccc1F)N1CCCCC1` [compound 323]: the IC50 against CaV2.2 and against NaV1.3 was greater than 10 µM each time.
For `COc1ccccc1CCNC(=O)c1cnc(N2CCCC2)nc1-c1cccc(C)c1` [compound 272], the IC50 on CaV2.2 and against NaV1.3 was greater than 10 µM throughout.
Turning to `N#Cc1ccc(-c2nc(NC3CCCCC3)ncc2C(=O)N2CCCC2)cc1` [compound 210], the IC50 on CaV2.2 and on NaV1.3 was greater than 10 µM throughout.
As to `N#Cc1ccc(-c2nc(NCc3ccc4c(c3)OCO4)ncc2C(=O)N2CCCC2)cc1` [compound 260], the IC50 on CaV2.2 and against NaV1.3 was greater than 10 µM in each case.
For the compound `CC(C)N(Cc1ccccc1)C(=O)c1cnc(N2CCCC2)nc1-c1ccc(C#N)cc1` [compound 211], the IC50 on CaV2.2 and against NaV1.3 was greater than 10 µM throughout.
